In one experiment the target is CDK2/cyclin E (Homo sapiens, UniProt P24941). Description: CDK2/cyclin E Flashplate test in 96-well format. Format: biochemical. Here is the method:
1. Protocol CDK2/cyclin E:
Purification of the CDK2/cyclin E-(His)6 Complex by IMAC (Immobilized Metal Affinity Chromatography):
Two recombinant baculoviruses bearing the human sequences coding, respectively, for CDK2 and cyclin E (the latter comprising a C-terminal hexahistidine tag) are used to coinfect insect Sf21 cells. Two to three days after the start of coinfection, the cells are harvested by centrifugation and then stored at −40° C. until the time of use. After thawing and mechanical lysis of the cells, the complex present in the lysis supernatant is purified by affinity chromatography on nickel (IMAC), and stored at −80° C.
CDK2/cyclin E Flashplate Test in 96-Well Format
A format in 96-well plates coated with streptavidin is used to test the activity of the compounds on the kinase activity of CDK2/cyclin E.
To perform this test, the biotinylated peptide substrate, a fragment of the pRb protein (biotinyl-[…]-OH) is dissolved at a concentration of 1 mM in kinase buffer (HEPES/NaOH 50 mM, NaCl 1 mM, MgCl2 5 mM, pH 7.5) in order to constitute a stock solution stored at −20° C. in the form of 110 μl aliquots. On the day of the experiment, an aliquot of this solution is thawed and diluted in kinase buffer containing 1 mM of dithiothreitol, and added to the buffer extemporaneously, in order to obtain a concentration of 14.3 μM. 70 μl of this solution are added to each well of the Flashplate in order to obtain a final substrate concentration of 10 μM during the enzymatic reaction, performed in a final volume of the reaction medium of 100 μl (cf. below).
Intermediate dilutions of inhibitors (products of the invention) at various concentrations are prepared in DMSO from stock solutions at 10 mM in separate tubes. 1000 μM, 333.3 μM, 111.1 μM, 37.03 μM, 12.35 μM, 4.11 μM and 1.37 μM dilutions are thus prepared. 1 μl of each of these solutions (or 1 μl of DMSO for the controls) is transferred into the wells of the test plate.
Into each well are then added 19 μl of a solution of a mixture of adenosine triphosphate (ATP) and of ATPy^33P in the kinase buffer at a concentration of 5.26 μM of ATP total and 52.6 μCi/ml of ^33P. The enzymatic reaction is triggered by addition of 10 μl per well of a solution of CDK2/cyclin E at 200 nM in the kinase buffer containing 1 mM of dithiothreitol (or 10 μl of kinase buffer containing 1 mM of dithiothreitol for the reaction blanks).
After addition of all the reagents, the plate is incubated at 30° C. with orbital stirring at 650 rpm.
When the incubation is complete, the plate is washed three times with 300 μl per well of PBS (phosphate-buffered saline, pH=7.4, without calcium or magnesium, reference 10010-015, Gibco BRL). The incorporation of ^33P into the peptide is quantified by scintillation counting using a Packard Topcount.NXT machine. The inhibitory activity of the products of the invention is evaluated by measuring the inhibitory concentration that allows a 50% reduction in the enzymatic activity (IC50).

For the next experiment, the system named is HeLa. Description: HeLa proliferation. Format: cell-based. The following applies: Homo sapiens, read-out: HeLa proliferation EC50 (nM) DG.
For the next experiment, the target named is CDK4/cyclin D1 (Homo sapiens, UniProt P11802). Description: CDK4/cyclin D1 Flashplate test in 96-well format. It counts as biochemical. Here is the method:
2. CDK4/cyclin D1 Protocol:
Purification of the CDK4-HA/cyclin D1-(His)6 Complex by IMAC (Immobilized Metal Affinity Chromatography):
Two recombinant baculoviruses bearing the human sequences coding, respectively, for CDK4-HA (C-terminal fusion with the hemaglutinin tag) and for cyclin D1-(His)6 are used to coinfect insect Sf9 cells. Sixty hours after the start of the coinfection, the cells are harvested by centrifugation and then frozen at −20° C. until the time of use.
CDK4/cyclin D1 Flashplate Test in 96-Well Format
A test in 96-well “Flashplate” plates coated with streptavidin is used to evaluate the inhibition of the CDK4/cyclin D1 kinase complex by the products of the invention. To perform this test, the biotinylated peptide substrate, a fragment of the pRb protein (biotinyl-[…]-amide) is dissolved at a concentration of 2 mM in kinase buffer (HEPES/NaOH 50 mM, NaCl 1 mM, MgCl2 5 mM, pH 7.5) in order to constitute a stock solution stored at −20° C. in the form of 110 μl aliquots. On the day of the experiment, an aliquot of this solution is thawed and diluted in kinase buffer containing 1 mM of dithiothreitol, and added to the buffer extemporaneously, in order to obtain a final peptide concentration of 2.571 μM. 70 μl of this solution are added to each well of the Flashplate in order to obtain a final substrate concentration of 1.8 μM during the enzymatic reaction, performed in a final volume of the reaction medium of 100 μl (cf. below). Intermediate dilutions of inhibitors (products of the invention) at various concentrations are prepared in DMSO from stock solutions at 10 mM in separate tubes. 1000 μM, 333.3 μM, 111.1 μM, 37.03 μM, 12.35 μM, 4.11 μM and 1.37 μM dilutions are thus prepared. 1 μl of each of these solutions (or 1 μl of DMSO for the controls) is then transferred into the wells of the test plate. Into each well are then added 19 μl of a solution of a mixture of adenosine triphosphate (ATP) and of ATPy^33P in the kinase buffer at a concentration of 5.26 μM of ATP total and 78.9 μCi/ml of ^33P. The enzymatic reaction is triggered by addition of 10 μl per well of a solution of CDK4/cyclin D1 at 250 nM in the kinase buffer containing 1 mM of dithiothreitol (or 10 μl of kinase buffer containing 1 mM of dithiothreitol for the reaction blanks).
After addition of all the reagents, the test plate is incubated at 30° C. with orbital stirring at 650 rpm. After the incubation, the plate is washed three times with 300 μl per well of PBS (phosphate-buffered saline, pH=7.4, without calcium or magnesium, reference 10010-015, Gibco BRL). The incorporation of ^33P into the substrate peptide is quantified by scintillation counting using a Packard Topcount.NXT machine. The inhibitory activity of the products of the invention is evaluated by measuring the inhibitory concentration that allows a 50% reduction in the enzymatic activity (IC50).

This is an account of results in patent publication US7632952B2, “Benzothiazoles and the use thereof as medicaments” (Aventis Pharma S.A., priority 2004, dated 2009).

The structures appear in SMILES notation. Where a name gives a salt, the structure may show the parent alone. Read-outs that look alike come from different tables or passages of the source. Some results are limits rather than exact numbers.

CDK4/cyclin D1, sequence (P11802 whole entry): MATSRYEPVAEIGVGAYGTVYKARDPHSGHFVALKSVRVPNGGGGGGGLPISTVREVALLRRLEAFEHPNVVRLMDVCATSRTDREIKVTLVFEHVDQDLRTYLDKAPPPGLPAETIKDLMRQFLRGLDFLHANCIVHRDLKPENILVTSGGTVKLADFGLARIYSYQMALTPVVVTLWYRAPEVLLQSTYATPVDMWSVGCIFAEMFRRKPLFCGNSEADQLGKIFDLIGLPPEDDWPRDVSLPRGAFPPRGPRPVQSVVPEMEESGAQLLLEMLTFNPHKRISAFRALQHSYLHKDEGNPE
CDK4/cyclin D1, sequence (P24385 whole entry partner): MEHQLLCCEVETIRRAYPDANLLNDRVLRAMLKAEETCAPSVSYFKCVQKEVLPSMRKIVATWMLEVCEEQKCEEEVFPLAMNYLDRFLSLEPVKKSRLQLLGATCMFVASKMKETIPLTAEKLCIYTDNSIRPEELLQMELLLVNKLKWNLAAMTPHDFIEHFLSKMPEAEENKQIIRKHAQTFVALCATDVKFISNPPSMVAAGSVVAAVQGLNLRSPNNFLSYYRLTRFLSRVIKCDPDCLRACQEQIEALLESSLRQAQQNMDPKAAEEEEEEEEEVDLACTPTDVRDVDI

As a reminder, the IC50 is the concentration at which inhibition is half-maximal. Regarding `CC(C)N(CCNc1ccc(S(=O)(=O)Oc2ccc3nc(NC(=O)CCCCCCN)sc3c2)cc1)C(C)C` [Example 52, 4-(2-diisopropylaminoethylamino)benzenesulfonic acid 2-(7-aminoheptanoylamino)benzothiazol-6-yl ester hydrochloride], the IC50 on CDK2/cyclin E (read-out: CDK2 IC50) stood at 0.112 µM; on CDK4/cyclin D1, 0.189 µM. In addition, the EC50 in the experiment with HeLa was 2950 nM.

With `CC(C)(O)CNc1ccc(S(=O)(=O)Oc2ccc3nc(NC(=O)CCC4CCNCC4)sc3c2)cc1` [Example 84, 4-(2-hydroxy-2-methylpropylamino)benzene-sulfonic acid 2-(3-piperidin-4-ylpropionylamino)benzothiazol-6-yl ester hydrochloride], the IC50 at CDK2/cyclin E (read-out: CDK2 IC50) was determined as 0.22 µM; on CDK4/cyclin D1 it was 0.683 µM.

In the case of `CNCC(=O)Nc1nc2ccc(OS(=O)(=O)c3cccs3)cc2s1` [Example 33c, Thiophene-2-sulfonic acid 2-(2-methylamino-acetylamino)benzothiazol-6-yl ester; compound with trifluoroacetic acid], the IC50 is 8.27 µM at CDK2/cyclin E (read-out: CDK2 IC50) and more than 10 µM at CDK4/cyclin D1.

For `CC(C)NCCNc1ccc(S(=O)(=O)Oc2ccc3nc(NC(=O)CC4CCNCC4)sc3c2)cc1` [Example 18, 4-(2-isopropylaminoethylamino)benzenesulfonic acid 2-(2-piperid-4-ylacetylamino)benzothiazol-6-yl ester hydrochloride], the IC50 on CDK2/cyclin E (read-out: CDK2 IC50) came to 2.68 µM; on CDK4/cyclin D1, 0.48 µM.

With `O=C(CC1CCNCC1)Nc1nc2ccc(OS(=O)(=O)c3ccc(NCCCn4ccnc4)cc3)cc2s1` [Example 19a, 4-(3-Imidazol-1-ylpropyl-amino)benzenesulfonic acid 2-(2-piperid-4-ylacetyl-amino)benzothiazol-6-yl ester hydrochloride], the IC50 at CDK2/cyclin E (read-out: CDK2 IC50) amounted to 2.72 µM; at CDK4/cyclin D1, 0.471 µM.

For `NCCCCCCCC(=O)Nc1nc2ccc(OS(=O)(=O)c3cccs3)cc2s1` [Example 33f, Thiophene-2-sulfonic acid 2-(8-amino-octanoylamino)benzothiazol-6-yl ester; compound with trifluoroacetic acid], the concentration for half-maximal inhibition (IC50) on CDK2/cyclin E (read-out: CDK2 IC50) worked out at 1.84 µM; against CDK4/cyclin D1, 7.1 µM.

Compound `CC1(C)CC(Nc2ccc(S(=O)(=O)Oc3ccc4nc(NC(=O)C5CC5)sc4c3)cc2)CC(C)(C)N1[O]` [Example 87, 4-(1-oxyl-2,2,6,6-tetramethylpiperidin-4-ylamino)-benzenesulfonic acid 2-(cyclopropanecarbonylamino)benzothiazol-6-yl ester] showed a 50% inhibitory concentration (IC50) on CDK2/cyclin E of 0.809 µM.

In the case of `NCCC(=O)Nc1nc2ccc(OS(=O)(=O)c3cccs3)cc2s1` [Example 33d, Thiophene-2-sulfonic acid 2-(3-amino-propionylamino)benzothiazol-6-yl ester; compound with trifluoroacetic acid], the IC50 amounted to 2.95 µM on CDK2/cyclin E (read-out: CDK2 IC50) and 8.27 µM against CDK4/cyclin D1.

Turning to `CCNCCNc1ccc(S(=O)(=O)Oc2ccc3nc(NC(=O)CCCCCCCN)sc3c2)cc1` [Example 22b, 4-(2-ethylaminoethyl-amino)benzene sulfonic acid 2-(8-aminooctanoyl-amino)benzothiazol-6-yl ester], the values for the IC50 on CDK2/cyclin E (read-out: CDK2 IC50) and on CDK4/cyclin D1 were 0.547 µM and 0.783 µM, respectively.

Take `O=C(CC1CCNCC1)Nc1nc2ccc(OS(=O)(=O)c3ccc(NCCNCCO)cc3)cc2s1` [Example 19c, 4-[2-(2-Hydroxyethyl-amino)ethylamino]benzene-sulfonic acid 2-(2-piperid-4-ylacetylamino)benzo-thiazol-6-yl ester hydro-chloride]: the results for the concentration for half-maximal inhibition (IC50) on CDK2/cyclin E (read-out: CDK2 IC50) and on CDK4/cyclin D1 were 5.78 µM and 1.22 µM, respectively.

Turning to `NCC(=O)Nc1nc2ccc(OS(=O)(=O)c3cccs3)cc2s1` [Example 33b, Thiophene-2-sulfonic acid 2-(2-amino-acetylamino)benzothiazol-6-yl ester; compound with trifluoroacetic acid], the figures for the IC50 on CDK2/cyclin E (read-out: CDK2 IC50) and against CDK4/cyclin D1 were 6.34 µM and more than 10 µM, respectively.

As for `CCNCCNc1ccc(S(=O)(=O)Oc2ccc3nc(NC(=O)CC4CCNCC4)sc3c2)cc1` [Example 19b, 4-(2-Ethylaminoethyl-amino)benzenesulfonic acid 2-(2-piperid-4-ylacetyl-amino)benzothiazol-6-yl ester hydrochloride], the IC50 on CDK2/cyclin E (read-out: CDK2 IC50) was 5.47 µM; against CDK4/cyclin D1 it was 0.732 µM.

In the case of `CC(C)N(CCNc1ccc(S(=O)(=O)Oc2ccc3nc(NC(=O)CC4CCNCC4)sc3c2)cc1)C(C)C` [Example 42, 4-(2-diisopropylaminoethylamino)benzenesulfonic acid 2-(2-piperid-4-ylacetylamino)benzothiazol-6-yl ester], the IC50 on CDK2/cyclin E (read-out: CDK2 IC50) is 1.14 µM; against CDK4/cyclin D1 it was 0.202 µM.

As to `NCCCCCCCC(=O)Nc1nc2ccc(OS(=O)(=O)c3ccc(NCCNCCO)cc3)cc2s1` [Example 22c, 4-[2-(2-hydroxyethyl-amino)ethylamino]benzene-sulfonic acid 2-(8-amino-octanoylamino)benzo-thiazol-6-yl ester hydro-chloride], the figures for the IC50 at CDK2/cyclin E (read-out: CDK2 IC50) and against CDK4/cyclin D1 were 1.1 µM and 1.57 µM, respectively.

`CC(C)N(CCNc1ccc(S(=O)(=O)Oc2ccc3nc(NC(=O)C4CNC4)sc3c2)cc1)C(C)C` [Example 39, 4-(2-diisopropylaminoethylamino)benzenesulfonic acid 2-[(azetidine-3-carbonyl)amino]benzothiazol-6-yl ester]: the IC50 turned out to be 3.06 µM on CDK2/cyclin E (read-out: CDK2 IC50) and 2.33 µM on CDK4/cyclin D1.

Regarding `CC(C)(O)CNc1ccc(S(=O)(=O)Oc2ccc3nc(NC(=O)C4CCNCC4)sc3c2)cc1` [Example 5, 4-(2-hydroxy-2-methylpropylamino)benzene-sulfonic acid 2-[(piperidine-4-carbonyl)amino]benzothiazol-6-yl ester], the 50% inhibitory concentration (IC50) at CDK2/cyclin E (read-out: CDK2 IC50) is 0.995 µM; against CDK4/cyclin D1, 3.97 µM.
